From ChEMBL document CHEMBL1201862, “PubChem BioAssay data set” (2004)
The source made the active and inactive calls.

Assays:
[1] = target: T1, Corticotropin-releasing factor receptor 2/Corticotropin-releasing factor-binding protein (Homo sapiens, UniProt P24387+Q13324); assay: activators of CRF receptor 2 with binding protein – uHTS hits, confirmation (AID 602473); assay type: functional; conditions: read-out: EC50_Mean
T1 sequence (Q13324 whole entry): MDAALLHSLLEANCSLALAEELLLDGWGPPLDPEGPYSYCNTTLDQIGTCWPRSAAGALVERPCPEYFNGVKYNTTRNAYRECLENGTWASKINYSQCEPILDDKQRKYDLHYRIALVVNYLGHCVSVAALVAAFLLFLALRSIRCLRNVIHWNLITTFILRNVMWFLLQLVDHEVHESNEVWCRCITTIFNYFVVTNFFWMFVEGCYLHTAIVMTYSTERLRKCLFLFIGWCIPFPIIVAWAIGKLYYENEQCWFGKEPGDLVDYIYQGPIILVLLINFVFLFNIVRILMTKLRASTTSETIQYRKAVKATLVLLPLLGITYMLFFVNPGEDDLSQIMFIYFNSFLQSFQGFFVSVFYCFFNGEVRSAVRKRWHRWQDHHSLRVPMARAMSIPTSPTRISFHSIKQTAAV
T1 sequence (P24387 whole entry): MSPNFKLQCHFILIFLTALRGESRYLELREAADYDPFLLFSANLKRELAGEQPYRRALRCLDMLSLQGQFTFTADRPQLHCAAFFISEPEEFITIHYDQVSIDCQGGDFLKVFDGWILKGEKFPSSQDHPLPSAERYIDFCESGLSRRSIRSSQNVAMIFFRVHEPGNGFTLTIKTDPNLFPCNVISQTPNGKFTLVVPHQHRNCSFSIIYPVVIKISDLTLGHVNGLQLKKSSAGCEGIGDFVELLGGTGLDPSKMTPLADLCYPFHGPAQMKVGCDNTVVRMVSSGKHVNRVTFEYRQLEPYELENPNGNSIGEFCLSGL

[2] = target: T1, Corticotropin-releasing factor receptor 2/Corticotropin-releasing factor-binding protein; assay: Dose Response confirmation of uHTS hits for small molecule antagonists of the CRF-binding protein and CRF-R2 receptor complex.; assay type: functional; conditions: read-out: IC50_Mean
[3] = target: T2, Rac GTPase-activating protein 1 (Homo sapiens, UniProt Q9H0H5); assay: blockers of MgcRacGAP-driven Rac1 GTP hydrolysis – biochemical, ADP Hunter fluorescence, primary and confirmatory, confirmation (AID 624330); assay type: functional
T2 sequence (Q9H0H5 whole entry): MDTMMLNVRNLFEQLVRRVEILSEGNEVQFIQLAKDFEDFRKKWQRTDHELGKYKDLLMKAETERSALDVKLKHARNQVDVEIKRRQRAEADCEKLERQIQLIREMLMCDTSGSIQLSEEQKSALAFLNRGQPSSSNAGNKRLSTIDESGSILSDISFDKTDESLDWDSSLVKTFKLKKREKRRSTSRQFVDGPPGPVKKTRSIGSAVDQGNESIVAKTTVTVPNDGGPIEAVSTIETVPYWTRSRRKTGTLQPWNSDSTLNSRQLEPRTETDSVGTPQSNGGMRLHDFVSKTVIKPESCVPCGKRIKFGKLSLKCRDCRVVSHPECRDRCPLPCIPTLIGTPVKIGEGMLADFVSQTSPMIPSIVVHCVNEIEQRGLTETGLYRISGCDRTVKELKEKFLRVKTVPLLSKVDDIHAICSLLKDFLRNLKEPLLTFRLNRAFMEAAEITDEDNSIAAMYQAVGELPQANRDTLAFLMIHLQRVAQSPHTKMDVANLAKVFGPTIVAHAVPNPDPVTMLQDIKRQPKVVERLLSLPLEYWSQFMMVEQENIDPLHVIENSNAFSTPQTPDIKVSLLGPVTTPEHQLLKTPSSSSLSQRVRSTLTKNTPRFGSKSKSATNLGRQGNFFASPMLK

[4] = target: T3, Replicative DNA helicase DnaB (Mycobacterium tuberculosis, UniProt P9WMR3); assay: DnaB intein splicing inhibitors, dose response, biochemical, cell-free fluorescence (AID 449749); assay type: functional
T3 sequence (P9WMR3 whole entry): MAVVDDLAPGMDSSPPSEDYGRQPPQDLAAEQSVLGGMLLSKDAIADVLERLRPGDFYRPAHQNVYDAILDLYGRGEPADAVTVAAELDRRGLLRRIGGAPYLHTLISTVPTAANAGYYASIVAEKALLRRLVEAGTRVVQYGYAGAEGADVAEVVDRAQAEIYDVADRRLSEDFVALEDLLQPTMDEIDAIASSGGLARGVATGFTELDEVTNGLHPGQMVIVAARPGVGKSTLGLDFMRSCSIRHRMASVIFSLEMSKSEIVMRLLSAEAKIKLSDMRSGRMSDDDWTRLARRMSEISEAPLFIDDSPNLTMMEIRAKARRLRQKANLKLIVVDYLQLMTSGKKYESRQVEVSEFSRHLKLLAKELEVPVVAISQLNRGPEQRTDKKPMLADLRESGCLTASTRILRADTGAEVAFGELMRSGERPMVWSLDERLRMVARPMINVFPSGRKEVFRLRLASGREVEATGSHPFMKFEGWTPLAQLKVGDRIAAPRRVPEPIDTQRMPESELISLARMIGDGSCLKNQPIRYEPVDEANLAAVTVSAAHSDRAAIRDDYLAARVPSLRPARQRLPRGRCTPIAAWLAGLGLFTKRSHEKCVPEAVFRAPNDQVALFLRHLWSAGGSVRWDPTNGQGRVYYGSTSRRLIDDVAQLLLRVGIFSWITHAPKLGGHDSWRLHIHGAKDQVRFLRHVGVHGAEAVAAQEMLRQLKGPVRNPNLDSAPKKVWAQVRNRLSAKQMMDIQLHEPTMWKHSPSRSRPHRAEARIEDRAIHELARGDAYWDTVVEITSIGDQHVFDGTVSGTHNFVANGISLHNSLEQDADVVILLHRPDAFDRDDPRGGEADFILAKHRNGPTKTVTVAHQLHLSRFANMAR

[5] = target: T4, Protein RecA (Mycobacterium tuberculosis, UniProt P9WHJ3); assay: Fluorescence Cell-Free Homogeneous Dose Retest to Identify Inhibitors of RecA-Intein Splicing Activity. [Related pubchem assays (depositor defined):AID2097, AID2223, AID489010, AID492950]; assay type: functional
T4 sequence (P9WHJ3 whole entry): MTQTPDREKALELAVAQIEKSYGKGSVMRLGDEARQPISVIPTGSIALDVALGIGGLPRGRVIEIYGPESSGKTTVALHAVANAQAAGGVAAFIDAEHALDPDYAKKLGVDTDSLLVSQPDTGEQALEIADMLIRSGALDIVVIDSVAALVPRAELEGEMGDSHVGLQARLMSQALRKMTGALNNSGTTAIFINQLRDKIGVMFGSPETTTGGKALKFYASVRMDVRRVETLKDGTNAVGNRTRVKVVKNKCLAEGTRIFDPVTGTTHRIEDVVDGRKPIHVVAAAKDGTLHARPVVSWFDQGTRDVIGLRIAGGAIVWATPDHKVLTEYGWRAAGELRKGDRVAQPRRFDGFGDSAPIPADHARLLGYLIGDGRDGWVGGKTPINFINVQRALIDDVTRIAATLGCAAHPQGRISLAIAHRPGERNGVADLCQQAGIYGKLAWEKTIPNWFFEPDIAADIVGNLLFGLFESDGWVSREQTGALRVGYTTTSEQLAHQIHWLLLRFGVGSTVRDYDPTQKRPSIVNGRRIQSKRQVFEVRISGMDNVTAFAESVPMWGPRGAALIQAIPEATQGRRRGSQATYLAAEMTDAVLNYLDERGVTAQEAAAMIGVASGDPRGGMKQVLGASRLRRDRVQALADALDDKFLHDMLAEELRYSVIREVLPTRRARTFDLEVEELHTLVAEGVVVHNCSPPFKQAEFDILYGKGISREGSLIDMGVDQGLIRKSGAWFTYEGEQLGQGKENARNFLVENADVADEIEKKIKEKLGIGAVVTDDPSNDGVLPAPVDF

[6] = cells; assay type: functional
[7] = P. falciparum Dd2 growth inhibitors, dose response, SYBR Green, cherry-picked samples (AID 1159567); assay type: functional, cell-based
[8] = NIH-3T3 fibroblast cytotoxicity, dose response, cytotoxicity control, cell-based, fluorescence, Alamar Blue, secondary assay (AID 2327); assay type: functional;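 further: NIH-3T3 mouse fibroblasts cultured with fluconazole at 8 µg/mL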
[9] = test system: Streptococcus; assay: GAS UMAA2166 growth inhibition – luminescence, BacTiterGlo, counter-screen for streptokinase expression inhibitor project, dose response (AID 1915); assay type: functional, organism-based;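 further: potency for reduction of bacterial viability or growth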
[10] = target: T5, Streptokinase A (Streptococcus pyogenes serotype M1, UniProt P10520); assay: viability-normalized secreted streptokinase activity reduction – plasminogen activation absorbance, OD405, dose response (AID 1914); assay type: functional, Streptococcus pyogenes M1 GAS;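 further: secreted streptokinase activity via plasminogen activation per viability signal from cell pellet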
T5 sequence (P10520 whole entry): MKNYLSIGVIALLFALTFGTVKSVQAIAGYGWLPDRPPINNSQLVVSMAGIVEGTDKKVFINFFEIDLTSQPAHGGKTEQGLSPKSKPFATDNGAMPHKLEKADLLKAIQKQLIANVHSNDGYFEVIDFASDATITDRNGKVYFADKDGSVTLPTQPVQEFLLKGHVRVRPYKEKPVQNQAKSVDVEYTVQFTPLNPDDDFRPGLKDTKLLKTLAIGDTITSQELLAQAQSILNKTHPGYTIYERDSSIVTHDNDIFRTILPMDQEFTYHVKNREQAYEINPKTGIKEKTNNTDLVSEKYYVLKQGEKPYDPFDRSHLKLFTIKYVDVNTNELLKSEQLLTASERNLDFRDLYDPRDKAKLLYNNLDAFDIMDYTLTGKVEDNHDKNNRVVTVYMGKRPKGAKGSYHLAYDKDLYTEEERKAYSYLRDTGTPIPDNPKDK

[11] = test system: Streptococcus sp. 'group A'; assay: Streptococcus pyogenes SK(-)GAS viability under kanamycin – luminescence, BacTiterGlo, confirmation, counter-screen for streptokinase expression inhibitor project, dose response (AID 1900); assay type: functional, organism-based

CCOC(=O)c1sc(NC(=O)CN(CC(C)C)CC(C)C)c(C(=O)OCC)c1C
EC50 [1]: > 53 µM (inactive) | IC50 [2]: > 47.1 µM (inactive)

Cc1ccccc1OCCN1CCCC1
IC50 [3]: 176 µM (active)

COC(=O)c1ccc(C(=O)OC)c(-n2c(=O)c3ccccc3c3ccccc3c2=O)c1
AC50 [4]: 8.61 µM (active) | EC50 [5]: 18.5 µM (active)

COc1ccc(-c2ccc(/C=N/NC(=O)Cc3nnc(N)s3)o2)cc1Cl
EC50 [1]: > 53 µM (inactive) | IC50 [2]: > 47.1 µM (inactive)

COc1cc2c(cc1OC)C(/C=C(\O)c1ccc(OC)c([N+](=O)[O-])c1)=NCC2
EC50 [1]: > 53 µM (inactive) | IC50 [2]: > 47.1 µM (inactive)

CCOC(=O)Cn1c(=O)oc2cc(S(=O)(=O)NC(C)(C)CC)ccc21
EC50 [1]: > 53 µM (inactive) | IC50 [2]: > 47.1 µM (inactive)

Cc1ccc(NC(=O)COCC(=O)Nc2ccc(C)cc2)cc1
IC50 [6]: 22.8 µM (active)

COc1ccc(C#Cc2ccc([C@H]3[C@H]4CN(C(=O)c5ccc(F)cc5)CC(=O)N4[C@H]3CO)cc2)cc1
AC50 [7]: 6.95 µM (active)

CCCC#Cc1ccc2c(c1)O[C@H](CN(C)C(=O)c1ccccc1F)[C@@H](C)CN([C@H](C)CO)S2(=O)=O
AC50 [7]: 4.94 µM (active)

COC(=O)c1ccc(N2CCN(CCNC(=O)Nc3ccc(OC)cc3)CC2)cc1
IC50 [6]: 22.5 µM (active)

COc1cc(OC)c(OC)cc1CN1CCN(Cc2ccc(SC)cc2)CC1
IC50 [3]: 66.9 µM (active)

CN(C)c1ccc(NC(=O)CN2C(=O)c3ccccc3C2=O)cc1
IC50 [3]: 73.7 µM (active)

Cn1c(SCC(=O)N2CCCc3ccccc32)nnc1-c1ccccc1
EC50 [8]: > 160 µM (inactive)

C[C@H](CO)N1C[C@H](C)[C@H](CN(C)CC2CC2)Oc2cc(-c3cccc(C#N)c3)ccc2S1(=O)=O
AC50 [7]: 3.61 µM (active)

COc1ccc(CNCC(=O)Nc2cc(OC)cc(OC)c2)cc1
IC50 [3]: 123 µM (active)

CCc1cc(/C(Cc2ccccn2)=N\O)c(O)cc1O
IC50 [3]: 31.6 µM (active)

CSc1ccc(/C=C(/NC(=O)c2ccc(C)cc2)C(=O)Nc2cccc(F)c2)cc1
EC50 [1]: > 53 µM (inactive) | IC50 [2]: > 47.1 µM (inactive)

CN(CC(=O)Nc1ccc2c(c1)OCCO2)CC(=O)Nc1ccc(F)c(F)c1F
EC50 [1]: > 53 µM (inactive) | IC50 [2]: > 47.1 µM (inactive)

CC(=O)N1CCOc2cc(S(=O)(=O)N3CCN(c4ccccc4)CC3)c(Cl)cc21
EC50 [1]: > 53 µM (inactive) | IC50 [2]: > 47.1 µM (inactive)

CSc1ccc(CCNC(=O)c2ccc(C[S+]([O-])Cc3ccc(Cl)cc3)o2)cc1 (centres undefined)
EC50 [1]: > 53 µM (inactive) | IC50 [2]: > 47.1 µM (inactive)

O=C(Nc1ccn(Cc2ccccc2)n1)c1ccc(F)cc1
IC50 [6]: > 50 µM (active)

CC(C)CSc1nnc2[nH]c(=O)cc(N)n12
EC50 [1]: > 53 µM (inactive) | IC50 [2]: > 47.1 µM (inactive)

O=C(OCC(=O)N1CCCc2ccccc21)c1ccc(S(=O)(=O)C(F)F)cc1
IC50 [6]: 23.3 µM (active)

CCOc1cc(/C=C2\SC(N3CCCC(C)C3)=NC2=O)ccc1O (centres undefined)
IC50 [3]: 26.9 µM (active)

C[C@H](CO)N1C[C@H](C)[C@@H](CN(C)C(=O)Nc2cccc3ccccc23)Oc2ccc(NC(=O)Nc3cccc4ccccc34)cc2CC1=O
AC50 [7]: 5.57 µM (active)

Cc1ccc(C(C)C)c(OCC(=O)OCc2c(C)noc2C)c1
IC50 [6]: 5.76 µM (active)

Cc1ccc(NCCC(=O)c2cccs2)cc1
IC50 [6]: 10.5 µM (active)

COc1ccc(NC(=O)N(C)C[C@H]2Oc3cc(-c4ccc(C)cc4)ccc3S(=O)(=O)N([C@H](C)CO)C[C@@H]2C)cc1
AC50 [7]: 4.83 µM (active)

CCOC(=O)N/N=C/c1ccc(N(CC)CC)cc1O
IC50 [3]: 78.5 µM (active)

N#C/C(=C\c1ccc(N2CCOCC2)o1)c1ccccc1
IC50 [3]: 47.1 µM (active)

COc1ccc(NC(=O)C(=O)NNC(=O)C(C)Oc2ccc(Cl)cc2Cl)cc1 (centres undefined)
EC50 [9]: 18.5 µM (active) | EC50 [10]: > 150 µM (not active) | EC50 [11]: 4.84 µM (active) | IC50 [6]: 6.02 µM (active)
